Results reported in patent US20230172914A1, “BIOMARKER-BASED THERAPEUTIC COMPOSITION” (WELLMARKER BIO CO., LTD., priority 2019, published 2023).

What was measured:
[1] = test system: KM12C cell line carrying RON mutant (Δ160); assay: Action mechanism in KM12C, Western blotting of related proteins; assay type: cell-based, human; conditions: 1 μM, 5 μM, 48 hours
Method: KM12C cell line was seeded at 5×10^5 cells onto a 100-mm plate. Then, after 24 hours, the cells were subjected to treatment with Example 18 at respective concentrations (1 μM, 5 μM) for 48 hours. After 48 hours, the cells and cell suspensions were collected (1,500 rpm, 3 minutes), and changes in expression of related proteins were checked with Western blotting. RIPA Lysis Buffer (T&I) was added to the respective cells so as to achieve lysis. Then, BCA kit (Pierce) was used to quantify proteins. Then, the proteins were loaded onto 8% SDS-polyacrylamide, and electrophoresis was performed at 125 V.
Then, blocking was performed with 5% non-fat skim milk-TBST solution for 1 hour. Subsequently, the proteins were reacted with primary antibodies, which were diluted 1:1,000 in 5% non-fat skim milk-TBST solution, at 4° C. for 24 hours or 48 hours. Then, washing with TBST was performed three times. The resultant was reacted with anti-rabbit and anti-mouse IgG conjugated HRP secondary antibodies, which were diluted at 1:1,000, at room temperature for 2 hours. Then, washing with TBST was performed three times. Subsequently, the membrane was treated with the ECL solution (GE Healthcare), and developed by exposure to an X-ray film. Then, the bands were checked.

[2] = test system: Colo320HSR cell line overexpressing RON mutants (mt #1: Δ160, mt #2: Δ155); assay: Drug efficacy after overexpression of RON mutants in Colo320HSR (trypan blue, Western blotting); assay type: cell-based
Method: Efficacy analysis for RON mutants was performed by overexpressing RON mutants, and then identifying cell death-inducing ability through Western blotting. Colo320HSR cell line was seeded onto a 100-mm plate, and then a RON mutant #1 (Δ160)- or RON mutant #2 (Δ155)-expressing vector was introduced into the cell line using a transfection solution (Polyplus). After 24 hours, the cell line was seeded onto a 60-mm plate at 2×10^5 cells. Then, after 24 hours, while performing medium exchange, the cells were subjected to treatment with Example 18 at respective concentrations (1 μM, 5 μM) for 48 hours.
After 48 hours, the cells and cell suspensions were collected (1,500 rpm, 3 minutes), and live cells and dead cells were quantitated (n=2) through trypan blue exclusion assay. Subsequently, the remaining cells were collected and lysed by adding RIPA Lysis Buffer (T&I) to the respective cells for the purpose of identifying, with Western blotting, inhibitory capacity on active RON and cell death-inducing ability. Then, proteins were quantified by BCA kit (Pierce).
Subsequently, the proteins were reacted with primary antibodies (active RON, cleaved caspase-3, beta actin), which were diluted 1:1,000 in 5% non-fat skim milk-TBST solution, at 4° C. for 24 hours or 48 hours. Then, washing with TBST was performed three times. The resultant was reacted with anti-rabbit and anti-mouse IgG conjugated horseradish peroxidase (HRP) secondary antibodies, which were diluted at 1:1,000, at room temperature for 2 hours. Then, washing with TBST was washed three times. Subsequently, the membrane was treated with the ECL solution (GE Healthcare), and developed by exposure to an X-ray film. Then, the bands were checked.

RON mutant (Δ155) = assay: Kinase assay for RON mutant Δ155 in transfected Colo320HSR (immunoprecipitation, Western blotting); assay type: cell-based; conditions: Colo320HSR transfected with RONΔ155, 2 hours of drug treatment
Method: (§1) As a way capable of replacing RON mutant, each of the mutants (Δ160, Δ155) was transfected into Colo320HSR, a RON-negative cell line, and the cell line was subjected to treatment with Example 18 or Comparative Example 1 at respective concentrations. Then, it was checked, through immunoprecipitation and Western blotting, whether expression of active RON decreases. The detailed method is as follows. The RON-negative Colo320SHR colon cancer cell line was transfected with 12 ug of each of RONΔ160 and RON Δ155 using lipofectamine 2000 (Invitrogen, cat #11668-019). For the same transfection efficiency, after 24 hours, the transformed strains were dispensed into a 60-mm dish. 48 hours after transfection, treatment with drugs of Comparative Example 1 and Example 18 was performed, respectively, in a dose-dependent manner. After 2 hours of drug treatment, the cells were collected and washed with PBS. Then, the washed cells were lysed with RIPA Lysis Buffer (T&I, cat #BRI-9001).
(§2) Protein concentrations were quantified using the Bradford (BioRad, cat #5000205) method. […]
(§3) Electrophoresis was performed using SDS-PAGE, and then proteins were transferred to PVDF membrane. […] The developed film was analyzed with densitometry using Image-J, and then IC50 was calculated using Graphpad Prism (GraphPad Software, Inc.).

KM12C cell line tumor = assay: Efficacy in animal model transplanted with KM12C, 30 and 50 mpk (Experimental Example 11); assay type: in vivo, BALB/c nude mice; conditions: once a day for 2 weeks
Method: 5-Week-old female BALB/c nude mice were purchased and acclimatized for 1 week. Then, human-derived colon cancer cell line KM12C (1.5×10^6 cells/mice) was diluted in PBS, and injected subcutaneously (100 μl) into the right dorsal side of the mice. Comparative Examples 1 and Example 18 were orally administered when the tumor reached a size of about 100 mm^3. The drug was administered at 30 mpk and 50 mpk once a day for 2 weeks, and tumor size and body weight were measured twice a week. […] After completion of the drug administration, the experimental animals were euthanized, and then the tumors were extracted and weighed to perform comparative analysis.

RON mutant (Δ160) = biological target: T1, RON mutant (Δ160) (Homo sapiens, UniProt Q04912); assay: Kinase assay for RON mutant Δ160 in transfected Colo320HSR (immunoprecipitation, Western blotting); assay type: cell-based; conditions: Colo320HSR transfected with RONΔ160, 2 hours of drug treatment
T1 construct: expressed in transfected cells; host or cells: Colo320HSR (RON-negative colon cancer cell line)
T1 sequence (Q04912 25-1294 isoform Q04912-7 limits assumed): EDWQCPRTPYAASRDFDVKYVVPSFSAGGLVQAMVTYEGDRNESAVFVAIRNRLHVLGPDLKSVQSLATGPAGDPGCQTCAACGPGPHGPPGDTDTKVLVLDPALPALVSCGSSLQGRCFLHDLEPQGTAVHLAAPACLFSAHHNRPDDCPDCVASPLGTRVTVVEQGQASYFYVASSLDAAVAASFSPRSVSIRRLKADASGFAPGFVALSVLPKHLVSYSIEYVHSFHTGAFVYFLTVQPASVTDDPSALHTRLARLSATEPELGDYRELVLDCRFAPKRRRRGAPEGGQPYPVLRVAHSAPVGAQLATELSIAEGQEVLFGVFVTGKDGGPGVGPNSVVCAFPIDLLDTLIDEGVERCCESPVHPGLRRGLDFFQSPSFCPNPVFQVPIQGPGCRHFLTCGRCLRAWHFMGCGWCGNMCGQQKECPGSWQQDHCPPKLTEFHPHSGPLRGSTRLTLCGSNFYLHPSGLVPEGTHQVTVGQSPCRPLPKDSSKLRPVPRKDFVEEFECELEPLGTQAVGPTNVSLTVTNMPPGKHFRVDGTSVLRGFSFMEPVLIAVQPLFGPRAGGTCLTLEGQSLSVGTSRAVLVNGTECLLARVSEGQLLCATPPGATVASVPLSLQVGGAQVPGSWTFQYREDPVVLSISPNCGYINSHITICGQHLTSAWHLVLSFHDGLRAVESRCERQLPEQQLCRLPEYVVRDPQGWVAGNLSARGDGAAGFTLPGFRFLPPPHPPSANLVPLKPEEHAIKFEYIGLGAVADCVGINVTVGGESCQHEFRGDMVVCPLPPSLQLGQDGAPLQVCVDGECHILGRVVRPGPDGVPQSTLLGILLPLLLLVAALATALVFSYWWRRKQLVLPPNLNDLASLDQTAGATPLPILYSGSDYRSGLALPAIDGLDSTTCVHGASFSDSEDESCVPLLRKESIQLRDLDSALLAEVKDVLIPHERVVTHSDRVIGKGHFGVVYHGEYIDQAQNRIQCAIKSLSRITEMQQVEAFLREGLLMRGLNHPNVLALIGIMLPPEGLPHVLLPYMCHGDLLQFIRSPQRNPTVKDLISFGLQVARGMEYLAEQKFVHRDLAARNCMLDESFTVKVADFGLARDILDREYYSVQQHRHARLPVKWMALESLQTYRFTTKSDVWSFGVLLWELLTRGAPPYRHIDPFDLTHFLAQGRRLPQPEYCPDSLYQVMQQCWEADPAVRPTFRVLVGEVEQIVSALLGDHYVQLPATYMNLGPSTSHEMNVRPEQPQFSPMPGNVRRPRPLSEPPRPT
T1 sequence (Q04912 25-304 partner limits assumed): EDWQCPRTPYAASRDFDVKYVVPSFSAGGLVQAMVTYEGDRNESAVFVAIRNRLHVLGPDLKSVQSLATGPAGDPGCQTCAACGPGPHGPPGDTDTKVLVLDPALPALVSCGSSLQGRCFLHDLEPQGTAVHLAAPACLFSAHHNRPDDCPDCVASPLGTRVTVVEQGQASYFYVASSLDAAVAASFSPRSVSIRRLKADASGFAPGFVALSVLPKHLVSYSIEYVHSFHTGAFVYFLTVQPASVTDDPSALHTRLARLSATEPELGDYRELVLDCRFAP
Method: as §1, §2, §3

[3] = RON mutant-transfected Colo320HSR

With `CCOc1ccn(-c2ccc(F)cc2)c(=O)c1C(=O)Nc1ccc(Oc2ccnc3cc(-c4ccc(CN5CCOCC5)cn4)sc23)c(F)c1.Cl` [Example 18, 4-ethoxy-N-[3-fluoro-4-({2-[5-(morpholinomethyl)pyridin-2-yl]thieno[3,2-b]pyridine-7-yl}oxy)phenyl]-1-(4-fluorophenyl)-2-oxo-1,2-dihydropyridine-3-carboxamide hydrochloride] the “active RON (Western blotting)” value [1] was “decreases”, the “p-ERK, p-Src, p-Akt, and p-Gab1 (Western blotting)” value [1] was “decrease” and the “cell death (trypan blue exclusion assay)” value ([2]; 1 μM, 5 μM, 48 hours, group transfected with RON mutant) was “cell death induction at the respective concentrations is observed”. The “active RON expression level (Western blotting)” value [2, 3] was “decreased expression level”, the “cleaved caspase 3 expression level (Western blotting)” value [2, 3] was “increased expression level” and the “inhibition of RON activity (degree of active RON)” value (RON mutant (Δ155)) was “high inhibition efficacy as compared with Comparative Example 1”. The “TGI (%)” value (KM12C cell line tumor; 30 mg/kg oral) was 82.4%, the “TGI (%)” value (KM12C cell line tumor; 50 mg/kg oral) was 84.8% and the “change in mouse body weight” value (KM12C cell line tumor; 30 mpk and 50 mpk oral) was “little change in mouse body weight”. For the same compound, the “tumor growth inhibition efficacy” value (KM12C cell line tumor; 30 mpk and 50 mpk oral) was “very high tumor growth inhibition efficacy” and the “inhibition of RON activity (degree of active RON)” value (RON mutant (Δ160)) was “high inhibition efficacy as compared with Comparative Example 1”.
